Test results: US20230212180A1, “SUBSTITUTED PYRAZINE COMPOUND, PHARMACEUTICAL COMPOSITION COMPRISING SAME, AND USE THEREOF” (Sichuan Kelun-Biotech Biopharmaceutical Co., Ltd., priority 2020, published 2023)
Read-outs that look alike come from different tables or passages of the source.

Assays:
hERG = target: T1, hERG (Homo sapiens, UniProt Q12809); assay: Biochemical assay for hERG inhibition (Predictor hERG Fluorescence Polarization Assay Kit); format: binding
T1 construct: purchased ThermoFisher
T1 sequence (Q12809 whole entry): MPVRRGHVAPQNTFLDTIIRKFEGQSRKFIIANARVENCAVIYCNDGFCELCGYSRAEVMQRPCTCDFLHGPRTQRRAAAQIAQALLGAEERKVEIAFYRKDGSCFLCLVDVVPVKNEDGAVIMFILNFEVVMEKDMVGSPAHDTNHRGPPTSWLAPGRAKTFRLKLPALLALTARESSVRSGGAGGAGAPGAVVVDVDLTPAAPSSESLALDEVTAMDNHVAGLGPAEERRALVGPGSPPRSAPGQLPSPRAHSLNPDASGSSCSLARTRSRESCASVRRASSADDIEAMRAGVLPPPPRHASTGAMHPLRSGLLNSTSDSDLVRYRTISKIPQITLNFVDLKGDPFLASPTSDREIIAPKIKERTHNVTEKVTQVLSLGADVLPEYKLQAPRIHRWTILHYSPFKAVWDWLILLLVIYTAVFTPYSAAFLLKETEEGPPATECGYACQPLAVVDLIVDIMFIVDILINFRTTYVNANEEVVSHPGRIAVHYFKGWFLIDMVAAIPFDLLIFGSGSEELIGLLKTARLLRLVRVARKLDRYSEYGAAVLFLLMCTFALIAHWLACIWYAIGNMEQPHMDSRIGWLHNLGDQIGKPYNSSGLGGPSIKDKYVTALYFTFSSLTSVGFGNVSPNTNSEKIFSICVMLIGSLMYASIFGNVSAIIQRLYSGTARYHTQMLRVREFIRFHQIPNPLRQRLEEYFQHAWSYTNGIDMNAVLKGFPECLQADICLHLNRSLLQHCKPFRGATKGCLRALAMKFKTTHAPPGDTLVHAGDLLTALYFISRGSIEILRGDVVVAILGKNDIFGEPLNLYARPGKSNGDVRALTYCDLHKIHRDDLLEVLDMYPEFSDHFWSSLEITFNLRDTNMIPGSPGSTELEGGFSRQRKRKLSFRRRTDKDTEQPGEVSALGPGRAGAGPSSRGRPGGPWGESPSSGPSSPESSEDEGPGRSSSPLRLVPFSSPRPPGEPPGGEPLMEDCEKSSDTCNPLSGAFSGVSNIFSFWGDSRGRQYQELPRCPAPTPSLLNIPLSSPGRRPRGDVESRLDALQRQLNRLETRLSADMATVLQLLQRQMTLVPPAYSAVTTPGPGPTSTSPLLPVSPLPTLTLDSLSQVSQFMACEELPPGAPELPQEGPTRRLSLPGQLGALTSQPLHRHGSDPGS
Procedure: Test Example 3: Biochemical Assay for hERG Inhibition
kit: Predictor™ hERG Fluorescence Polarization Assay Kit (ThermoFisher) containing:
Compound E4031 as a positive control;
tracer concentration: 1 nM;
incubation duration: 2 hours;
parameters for microplate reader: BMG PHERAstar FS fluorescence microplate reader.
Test group: The test compounds at different concentrations were added into a microplate containing hERG cell membrane, and the tracer with a high affinity for hERG was then added into each well. The microplate was incubated at 25° C. for 2 hours before detection of the change in fluorescence polarization value (mP) (excitation wavelength: 540 nm; emission wavelength: 590 nm) using a multi-mode microplate reader.
Positive control group: The experimental method for the positive control group was the same as that for the test group, except that the test compound was replaced with 30 μM Compound E4031.
Blank control group: The experimental method for the blank control group was the same as that for the test group, except that the test compound was replaced with the hERG buffer and that the hERG cell membrane was not added.
Based on the data ratios, the percentage inhibition (%) of the compounds of the present disclosure against hERG at different concentrations was calculated and the range of the half maximal inhibitory concentration (IC50) of the compounds was determined. Percentage inhibition (%)=(1−(mP of the test compound−mP of the positive control group)/(mP of the blank control group−mP of the positive control group))×100%.

[1] = target: T2, recombinant full-length human PTPN11 (SHP2) (Homo sapiens, UniProt Q06124); assay: Inhibition of in vitro enzyme activity of SHP2 (DiFMUP fluorescence endpoint assay); format: biochemical; settings: SHP2 0.5 nM, DiFMUP 200 μM, IRS-1 0.5 μM; 60 min incubation
T2 construct: recombinant full-length human PTPN11 (SHP2), active (SignalChem); purchased SignalChem
T2 sequence (Q06124 1-593): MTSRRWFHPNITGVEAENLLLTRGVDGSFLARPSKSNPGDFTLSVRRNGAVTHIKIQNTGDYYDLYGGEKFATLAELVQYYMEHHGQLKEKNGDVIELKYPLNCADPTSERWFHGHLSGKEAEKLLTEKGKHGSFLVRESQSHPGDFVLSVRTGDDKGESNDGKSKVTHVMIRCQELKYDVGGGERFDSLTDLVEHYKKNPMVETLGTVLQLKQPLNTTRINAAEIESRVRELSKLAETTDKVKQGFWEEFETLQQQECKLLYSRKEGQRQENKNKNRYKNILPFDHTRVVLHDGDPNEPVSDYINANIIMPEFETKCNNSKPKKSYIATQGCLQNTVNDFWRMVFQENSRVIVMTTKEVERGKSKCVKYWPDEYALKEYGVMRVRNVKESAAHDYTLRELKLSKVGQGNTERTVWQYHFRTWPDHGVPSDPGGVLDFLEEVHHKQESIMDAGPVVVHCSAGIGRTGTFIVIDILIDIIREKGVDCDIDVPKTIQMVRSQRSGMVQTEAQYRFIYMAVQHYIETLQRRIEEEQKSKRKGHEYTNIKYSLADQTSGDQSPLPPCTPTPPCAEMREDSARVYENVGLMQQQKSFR
Method in brief: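 Full-length human SHP2 (0.5 nM) with 0.5 μM IRS1 bis-phosphopeptide preincubated with compound 60 min at room temperature, pH 7.2 HEPES with 5 mM DTT. DiFMUP (200 μM) reacted 30 min, stopped with bpv, fluorescence ex 340/em 450 nm. IC50 by four-parameter logistic fit.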

CYP3A4 = target: T3, CYP3A4 (Homo sapiens, UniProt P08684); assay: Biochemical assay for CYP enzyme inhibition, P450-Glo CYP3A4 Screening System; format: in vitro ADME
T3 construct: purchased Promega
T3 sequence (P08684 whole entry): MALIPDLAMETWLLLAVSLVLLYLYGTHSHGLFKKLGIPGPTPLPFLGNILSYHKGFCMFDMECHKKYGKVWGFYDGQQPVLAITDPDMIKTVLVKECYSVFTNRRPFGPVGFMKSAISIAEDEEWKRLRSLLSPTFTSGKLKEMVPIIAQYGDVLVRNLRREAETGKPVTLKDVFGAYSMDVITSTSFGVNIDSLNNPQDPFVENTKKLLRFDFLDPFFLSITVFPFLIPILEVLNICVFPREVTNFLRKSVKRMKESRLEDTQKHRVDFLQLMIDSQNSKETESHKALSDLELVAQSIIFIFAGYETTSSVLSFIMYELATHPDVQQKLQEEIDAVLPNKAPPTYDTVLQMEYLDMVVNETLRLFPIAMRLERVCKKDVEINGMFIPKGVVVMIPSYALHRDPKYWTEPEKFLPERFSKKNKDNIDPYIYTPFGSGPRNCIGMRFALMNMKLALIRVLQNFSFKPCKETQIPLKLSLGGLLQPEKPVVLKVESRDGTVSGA
Procedure: Test Example 5: Biochemical Assay for CYP Enzyme (Cytochrome P450) Inhibition
P450-Glo™ CYP3A4 Screening System, (Promega).
BMG PHERAstar FS Luminescent.
The experiments were carried out separately according to the instructions of the kits. The steps were as follows:
3.3. Inhibition Against CYP3A4:
Test group: The test compounds at different concentrations were added into a microplate, and Luciferin-IPA ([…]), K3PO4 (100 mM), and CYP3A4 (2 nM) were added into each well, and pre-incubated at room temperature for 10 min. Thereafter, an NADPH regeneration system was added. The mixture was reacted at room temperature for 30 min. Finally, an equal volume of detection buffer was added and incubated at room temperature for 20 min, followed by chemiluminescence detection.
Negative control group: The experimental method for the negative control group was the same as that for the test group, except that the test compound was not added.
Blank control group: The experimental method for the blank control group was the same as that for the test group, except that the test compound was not added and that CYP3A4 was replaced with CYP3A4 Membrance (2 nM).
Percentage inhibition=(1−(the chemiluminescent signal value of the test compound group at a certain test concentration−the chemiluminescent signal value of the blank control group)/(the chemiluminescent signal value of the negative control group−the chemiluminescent signal value of the blank control group))×100%.
When the percentage inhibition was between 30% and 80%, a single value or a value range of the half maximal inhibitory concentration (IC50) of the compound against the CYP enzyme was estimated based on the following equation: IC50=X×(1−percentage inhibition)/percentage inhibition, wherein X was the test concentration of the compound.

[2] = estimated from percentage inhibition, read-out: IC50 (μM) CYP3A4

## C[C@@H]1OCC2(CCN(c3ncc(Sc4ccnc(N5CC(CS(C)(=O)=O)C5)c4Cl)nc3CO)CC2)[C@@H]1N [Example 26, (3-((3S,4S)-4-amino-3-methyl-2-oxa-8-azaspiro[4.5]decan-8-yl)-6-(3-chloro-2-(3-(methylsulfonylmethyl)azetidin-1-yl)pyridin-4-ylthio)pyrazin-2-yl)methanol]
hERG
  IC50: > 10 µM
[1]
  IC50: 0.7 nM
CYP3A4
  IC50: > 10 µM

## C[C@@H]1OCC2(CCN(c3ncc(Sc4ccnc(N5CC(C)(CO)C5)c4Cl)nc3CO)CC2)[C@@H]1N [Example 27, (3-((3S,4S)-4-amino-3-methyl-2-oxa-8-azaspiro[4.5]decan-8-yl)-6-(3-chloro-2-(3-(hydroxymethyl)-3-methylazetidin-1-yl)pyridin-4-ylthio)pyrazin-2-yl)methanol]
hERG
  IC50: > 10 µM
[1]
  IC50: 4.1 nM
CYP3A4
  IC50: > 10 µM

## C[C@@H]1OCC2(CCN(c3cnc(Sc4ccnc(N5CC(C(C)(C)O)C5)c4Cl)cn3)CC2)[C@@H]1N [Example 28, 2-(1-(4-(5-((3S,4S)-4-amino-3-methyl-2-oxa-8-azaspiro[4.5]decan-8-yl)pyrazin-2-ylthio)-3-chloropyridin-2-yl)azetidin-3-yl)propan-2-ol]
hERG
  IC50: > 10 µM
[1]
  IC50: 2.45 nM
CYP3A4
  IC50: > 10 µM

## C[C@@H]1OCC2(CCN(c3ncc(Sc4ccnc(N5CC(C)(CS(C)(=O)=O)C5)c4Cl)nc3CO)CC2)[C@@H]1N [Example 29, (3-((3S,4S)-4-amino-3-methyl-2-oxa-8-azaspiro[4.5]decan-8-yl)-6-(3-chloro-2-(3-methyl-3-(methylsulfonylmethyl)azetidin-1-yl)pyridin-4-ylthio)pyrazin-2-yl)methanol]
hERG
  IC50: > 10 µM
[1]
  IC50: 1.68 nM
CYP3A4
  IC50: > 10 µM

## C[C@@H]1OCC2(CCN(c3ncc(Sc4ccnc(N5CC(C(C)(C)O)C5)c4F)nc3CO)CC2)[C@@H]1N [Example 40, 2-(1-(4-(5-((3S,4S)-4-amino-3-methyl-2-oxa-8-azaspiro[4.5]decan-8-yl)-6-(hydroxymethyl)pyrazin-2-ylthio)-3-fluoropyridin-2-yl)azetidin-3-yl)propan-2-ol]
hERG
  IC50: > 10 µM
[1]
  IC50: 4.13 nM
CYP3A4
  IC50: > 10 µM

## C[C@@H]1OCC2(CCN(c3ncc(Sc4ccnc(N5CC(CO)(CF)C5)c4Cl)nc3CO)CC2)[C@@H]1N [Example 42, (3-((3S,4S)-4-amino-3-methyl-2-oxa-8-azaspiro[4.5]decan-8-yl)-6-(3-chloro-2-(3-(fluoromethyl)-3-(hydroxymethyl)azetidin-1-yl)pyridin-4-ylthio)pyrazin-2-yl)methanol]
hERG
  IC50: > 10 µM
[1]
  IC50: 10.2 nM
CYP3A4; [2]
  IC50: > 10 µM

## CC(C)(O)C1CN(c2nccc(Sc3ncc(N4CCC5(CC4)Cc4ncccc4[C@H]5N)nc3N)c2Cl)C1 [Example 46, (S)-2-(1-(4-(3-amino-5-(5-amino-5,7-dihydrospiro[cyclopenta[b]pyridine-6,4′-piperidin]-1′-yl)pyrazin-2-ylthio)-3-chloropyridin-2-yl)azetidin-3-yl)propan-2-ol]
hERG; competition with affinity tracer 1 nM, 2 hours, read-out: IC50 (μM), hERG inhibition assay
  IC50: > 10 µM
[1]
  IC50: 2.6 nM
CYP3A4; [2]
  IC50: > 10 µM

## C[C@@H]1OCC2(CCN(c3ncc(Sc4ccnc(N5CC(C#N)(CO)C5)c4Cl)nc3CO)CC2)[C@@H]1N [Example 47, 1-(4-(5-((3S,4S)-4-amino-3-methyl-2-oxa-8-azaspiro[4.5]decan-8-yl)-6-(hydroxymethyl)pyrazin-2-ylthio)-3-chloropyridin-2-yl)-3-(hydroxymethyl)azetidine-3-carbonitrile]
hERG
  IC50: > 10 µM
[1]
  IC50: 3.2 nM
CYP3A4
  IC50: > 10 µM
